Test results as given in patent US20240091306A1 (Dompe' Farmaceutici SPA, priority 2020, published 2024).

How the values were obtained:
[1] = test system: full-thickness excisional skin wounds; assay: In vivo wound-healing assay in diabetic mice; design: species or system spontaneously diabetic (db/db) mice; settings: db/db mice, topical daily, 1.0 μg/50 μL days 0 to 7 and 10 μg/50 μL days 8 to 13; days 8 to 14 (p≤0.035)
Excerpt: Patients with diabetes are prone to impaired wound healing, with foot ulceration being particularly prevalent. This delay in wound healing also extends to animal models of diabetes. The impact of the EPO peptide (DSRVLERYLLE, corresponding to SEQ ID No. 10) on wound healing was therefore investigated by in vivo experiments on spontaneously diabetic (db/db) mice (i.e., BKS.Cg-m Dock7^m+/+Lepr^db/J mice).
In this study, the healing of full-thickness excisional skin wounds on the flanks of diabetic mice in receipt of the EPO peptide was compared to that of wounds in receipt of negative control (Water for Injection) treatment. The overall wound closure (i.e. the reduction in open wound area) was determined over time by taking scaled wound images of each wound at each assessment point.
EPO Peptide (DFL24435) was solubilized at 200 μg/mL (10 μg per 50 μL) in sterile water for injection, aliquoted into 100 μL volumes, stored at −20° C., defrosted on the day of use and diluted as necessary.
The animals were divided in a control group, that was treated with water for injection, and a EPO peptide group, that was treated with the peptide. Treatment was carried out once a day on post-wounding days 0 to 13 and the animals were sacrificed on day 14. […]

[2] = test system: HUVECs; assay: Angiogenic activity assay under normal and stressed condition; format: cell-based, human; settings: 10 ng/ml
Procedure: Low passage HUVECs were grown under normal (10% FBS) or stressed (serum starved; 0.5% FBS) conditions for 16 h in endothelial basal medium (EBM) and then harvested and resuspended in complete medium containing 10% FBS. […]
An EPO-derived 11 amino acids-long peptide (EPO peptide—SEQ ID No. 10) and a F3-derived 16 amino acids-long peptide (F3S—SEQ ID No. 9) were synthetized and tested at 10 ng/ml for their angiogenic activity under the same procedure of Example 7.

[3] = test system: HUVECs; assay: Angiogenic activity assay on BME-coated wells, stressed HUVECs; format: cell-based, human
Procedure: (§1) Low passage HUVECs were grown under stressed (serum starved; 0.5% FBS) conditions for 16 h in endothelial basal medium (EBM) and then harvested and resuspended in complete medium containing 10% FBS.
(§2) Cells were seeded (5×10^4 cells per well) in wells coated with growth factor-reduced Cultrex basement membrane extract (BME; Trevigen Gaithersburg, MD, USA) and left untreated (NT) or treated with 10 ng/ml of GST, p24, p17 or each p17-derived peptide F1 to F8.
Data are the means±SD of three independent experiments with similar results.
Statistical analysis was performed by one-way ANOVA and the Bonferroni post-test was used to compare data (***P<0.001).

[4] = test system: aortic rings; assay: Rat aortic ring assay (ex vivo); format: cell-based, Sprague-Dawley rats; settings: 10 days
Procedure: Briefly, the dorsal aorta was excised from 6-wk-old Sprague-Dawley rats. Rings, 1-mm thick, were embedded in collagen gel and then incubated with serum-free EBM containing PBS, peptide F2 (10 ng/ml), peptide F3 (10 ng/ml), or FGF-2 (50 ng/ml) (Thermo Fisher Scientific, Rodano, Italy). The plates were incubated for 10 days and angiogenesis was quantified by counting the number of microvessels originating from aortic rings.

[5] = test system: HUVECs; assay: Wound-healing assay (EC migration); format: cell-based, human; settings: 10 ng/ml; for effect on HUVEC migration: 12 h; for healing: after 12 h of culture
Procedure: The involvement of peptide F2 and F3 in promoting EC migration was evaluated by performing a wound healing assay.
HUVECs were plated on 24-well plates (10^5 cells per well) in complete medium containing 10% FBS. Confluent monolayers were nutrient starved for 16 h and then scratched using a 200 μI pipette tip. After being washed, cells were left untreated or treated with 10 ng/ml of GST, p24, p17, or each p17-derived peptide F1 to F8.

[6] = test system: endothelial cells; assay: Involvement of autophagy-based pathway in angiogenic activity; format: cell-based
[7] = test system: HMVEC-Ls; assay: Angiogenic activity assay on HMVEC-Ls; format: cell-based, human; settings: HMVEC-Ls (lung)
Procedure: (§3) Human aortic endothelial cells (HAECs) and Human lung microvascular endothelial cells (HMVEC-Ls) were purchased from Clonetics (San Diego, CA, USA) and cultured in EGM-2MV (Lonza) containing 10% (vol/vol) FBS.
as §1, §2
(§4) Similar results were obtained by using human ECs derived from different origin, such as aorta (HAECs), lung (HMVEC-Ls) and lymph node (LN-LECs) (FIGS. 3, 4 and 5, respectively).

[8] = test system: chick chorioallantoic membrane (CAM); assay: Chick chorioallantoic membrane (CAM) assay; format: in vivo, White Leghorn chicken; settings: 100 ng on gelatin sponge, day 12
Procedure: The vasculogenic activity of peptide F2 and F3 was further characterized by in vivo experiments by using the chick chorioallantoic membrane (CAM) assay.
Fertilized White Leghorn chicken eggs (30 per group) were incubated at 37° C. at constant humidity. On day 3, a square window was opened in the shell, and 2-3 ml of albumin was removed to allow detachment of the developing CAM. The window was sealed with a glass, and the eggs were returned to the incubator. On day 8, eggs were treated with 1 mm 3 sterilized gelatin sponges (Gelfoam; Upjohn, Kalamazoo, MI, USA) placed on top of the growing CAM, as described in Ribatti D et al, Nat Protoc, 2006; 1:85-91, and loaded with 1 μl of PBS (negative control), 1 μl of PBS containing 100 ng of peptide F2 or F3. CAMs were examined daily until day 12 and photographed in ovo with a stereomicroscope equipped with a camera and image analyzer system (Olympus, Hamburg, Germany). At day 12, the angiogenic response was evaluated by the image analyzer system and counted as the number of vessels converging toward the sponge.

[9] = test system: LN-LECs; assay: Angiogenic activity assay on LN-LECs; format: cell-based, human; settings: LN-LECs (lymph node)
Procedure: Human primary lymph node-derived endothelial cells (LN-LECs) have been developed and characterized as described in Norder et al, FASEB J, 2012; 26:2835-2846.
LN-LECs were cultured in EGM (Lonza) containing 10% FBS and supplemented with VEGF-C (25 ng/ml) (Reliatech, Wolfenbuettel, Germany).
as §1, §2, §4

[10] = test system: HUVECs; assay: Angiogenic activity assay with CXCR1 and CXCR2 inhibition; format: cell-based, human; settings: stressed HUVECs, peptide 10 ng/ml, preincubation 1 hour with 2.5 μg/ml mAb
Procedure: as §1
Cells were seeded (5×10^4 cells per well) in wells coated with growth factor-reduced Cultrex basement membrane extract (BME; Trevigen Gaithersburg, MD, USA) and left untreated (NT) or treated with 10 ng/ml of each p17-derived peptide F1 or F2, after preincubation for 1 hour at 37° C. with 2.5 μg/ml of a control isotype-matched mAb (Ctrl mAb), a neutralizing mAb to CXCR1 and/or a neutralizing mAb to CXCR2.

[11] = test system: HAECs; assay: Angiogenic activity assay on HAECs; format: cell-based, human; settings: HAECs (aorta)
Procedure: as §3, §1, §2, §4

[12] = test system: B cell; settings: He W et al. 2019; cited from earlier work
[13] = target: CXCR2 (Homo sapiens, UniProt P25025); settings: He W et al. 2019; cited from earlier work
[14] = He W et al. 2019; cited from earlier work
[15] = target: CXCR1 (Homo sapiens, UniProt P25024); settings: He W et al. 2019; cited from earlier work
[16] = normal (10% FBS) culture conditions
[17] = stressed (serum starved; 0.5% FBS) conditions
[18] = HUVECs, as example 2, 10 ng of the peptide
[19] = HUVECs stressed (serum starved; 0.5% FBS) 16 h, 10 ng/ml

CXCR1, sequence (P25024 whole entry): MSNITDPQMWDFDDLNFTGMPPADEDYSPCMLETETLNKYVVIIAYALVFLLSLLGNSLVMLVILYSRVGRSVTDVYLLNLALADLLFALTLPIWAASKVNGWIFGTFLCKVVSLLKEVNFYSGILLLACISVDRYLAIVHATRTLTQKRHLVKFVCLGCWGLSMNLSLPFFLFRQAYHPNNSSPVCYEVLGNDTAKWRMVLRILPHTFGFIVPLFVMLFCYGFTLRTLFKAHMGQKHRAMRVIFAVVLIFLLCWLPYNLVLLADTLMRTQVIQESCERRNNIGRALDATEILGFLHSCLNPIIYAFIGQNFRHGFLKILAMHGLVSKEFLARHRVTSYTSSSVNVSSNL
CXCR2, sequence (P25025 whole entry): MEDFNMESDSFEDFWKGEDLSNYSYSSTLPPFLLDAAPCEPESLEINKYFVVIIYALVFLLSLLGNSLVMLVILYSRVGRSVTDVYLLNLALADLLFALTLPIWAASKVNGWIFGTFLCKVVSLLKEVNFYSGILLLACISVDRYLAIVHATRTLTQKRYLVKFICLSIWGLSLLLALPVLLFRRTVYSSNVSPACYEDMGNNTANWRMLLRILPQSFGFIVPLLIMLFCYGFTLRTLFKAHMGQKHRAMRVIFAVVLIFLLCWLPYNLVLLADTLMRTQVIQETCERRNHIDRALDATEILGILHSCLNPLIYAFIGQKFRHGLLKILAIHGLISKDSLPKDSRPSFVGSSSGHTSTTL

Question: Which “wound closure (reduction in open wound area) compared to vehicle” value [1] does the source give for “DSRVLERYLLE [EPO peptide, EPO-derived 11 amino acids-long peptide]” here?
Answer: significantly increased closure

Question: What about the angiogenic activity [2, 16] of the same substance?
Answer: potent angiogenic activity

Question: What about the angiogenic activity [2, 17] of the same substance?
Answer: potent angiogenic activity

Question: Which angiogenic activity [3, 18] does the source give for ASRELERF (ASRELERFLLE) here?
Answer: able to significantly promote angiogenesis

Question: With AANELDRFLLE [SIVcpz-derived peptide] as the substance, how does the angiogenic activity [3, 18] read?
Answer: able to significantly promote angiogenesis

Question: Which “number of microvessels originating from aortic rings” value (from here on “number of microvessels originating”) ([4]; 50 ng/ml) does the source give for “FGF-2: FGF-2 (Thermo Fisher Scientific), positive control in aortic ring assay [reference compound]” here?
Answer: 84±6

Question: Which angiogenic activity [3, 18] does the source give for ASRELERFLLE here?
Answer: able to significantly promote angiogenesis

Question: For “ASRELERFAVNPGLLE [Peptide F3S, F3-derived 16 amino acids-long peptide]”, which angiogenic activity [2, 16] is on record?
Answer: potent angiogenic activity

Question: What about the angiogenic activity [2, 17] of the same substance?
Answer: potent angiogenic activity

Question: With AANELDRF [SIVcpz-derived peptide] as the substance, how does the angiogenic activity [3, 18] read?
Answer: able to significantly promote angiogenesis

Question: Which angiogenic activity [3, 18] does the source give for ASRELERFACNPELLE [peptide gor] here?
Answer: able to significantly promote angiogenesis

Question: What does the source list for “glutathione S-transferase [GST, reference compound]”?
Answer: effect on HUVEC migration [5]: did not exert any effect; angiogenic activity [3, 19]: did not induce any pro-angiogenic activity

Question: With “KHIVWASRELERFAVNPGLL [Peptide F3, p17-derived 20 amino acid peptide]” as the substance, how does the “involvement of autophagy-based pathway in angiogenic activity” value [6] read?
Answer: independent from autophagy

Question: And the angiogenic activity [7]?
Answer: potent angiogenic activity

Question: And the “mean number of vessels converging toward the sponge” value [8]?
Answer: 30±3

Question: And the angiogenic activity [9]?
Answer: potent angiogenic activity

Question: And the angiogenic activity [2, 16]?
Answer: promote angiogenesis

Question: And the angiogenic activity [2, 17]?
Answer: potent angiogenic activity

Question: What about the “effect on HUVEC migration” value [5] of the same substance?
Answer: comparable to that exerted by p17

Question: What about the healing [5] of the same substance?
Answer: ~100%

Question: And the “effect of neutralizing mAb to CXCR1 and CXCR2 on peptide-induced angiogenesis” value [10]?
Answer: did not impair

Question: What about the angiogenic activity [3, 19] of the same substance?
Answer: endowed with angiogenic activity

Question: And the “number of microvessels originating” value ([4]; 10 ng/ml)?
Answer: 46±8

Question: What about the angiogenic activity [11] of the same substance?
Answer: potent angiogenic activity

Question: With “GARASVLSGGELDRWEKIRL [Peptide F1, p17-derived peptide, aminoacids 2 to 21 of p17]” as the substance, how does the “B cell growth promoting activity” value [12] read?
Answer: endowed with cell growth promoting activity

Question: Which angiogenic activity [3, 18] does the source give for ASRELERFACNPGLME [peptide cpz] here?
Answer: able to significantly promote angiogenesis

Question: With EKIRLRPGGKKKYKLKHIVW [Peptide F2] as the substance, how does the “involvement of autophagy-based pathway in angiogenic activity” value [6] read?
Answer: involves an autophagy-based pathway

Question: What about the angiogenic activity [7] of the same substance?
Answer: potent angiogenic activity

Question: And the “mean number of vessels converging toward the sponge” value [8]?
Answer: 27±4

Question: And the “binding to CXCR2 receptor” value [13]?
Answer: capable to bind

Question: And the angiogenic activity [9]?
Answer: potent angiogenic activity

Question: What about the angiogenic activity [2, 16] of the same substance?
Answer: promoting angiogenesis under stress condition only

Question: What about the angiogenic activity [2, 17] of the same substance?
Answer: potent angiogenic activity

Question: What about the “effect on HUVEC migration” value [5] of the same substance?
Answer: comparable to that exerted by p17

Question: And the healing [5]?
Answer: ~100%

Question: And the “effect of neutralizing mAb to CXCR1 and CXCR2 on peptide-induced angiogenesis” value [10]?
Answer: inhibitory

Question: And the angiogenic activity [3, 19]?
Answer: endowed with angiogenic activity

Question: What about the “number of microvessels originating” value ([4]; 10 ng/ml) of the same substance?
Answer: 55±5

Question: What about the angiogenic activity [11] of the same substance?
Answer: potent angiogenic activity

Question: What about the binding to heparin [14] of the same substance?
Answer: capable to bind

Question: And the “binding to CXCR1 receptor” value [15]?
Answer: capable to bind
